The target in assay [1] is T1, Rat recombinant α2,3(O)ST (Rattus norvegicus, UniProt Q11205).
T1 construct: purchased Calbiochem
T1 sequence (Q11205 1-350): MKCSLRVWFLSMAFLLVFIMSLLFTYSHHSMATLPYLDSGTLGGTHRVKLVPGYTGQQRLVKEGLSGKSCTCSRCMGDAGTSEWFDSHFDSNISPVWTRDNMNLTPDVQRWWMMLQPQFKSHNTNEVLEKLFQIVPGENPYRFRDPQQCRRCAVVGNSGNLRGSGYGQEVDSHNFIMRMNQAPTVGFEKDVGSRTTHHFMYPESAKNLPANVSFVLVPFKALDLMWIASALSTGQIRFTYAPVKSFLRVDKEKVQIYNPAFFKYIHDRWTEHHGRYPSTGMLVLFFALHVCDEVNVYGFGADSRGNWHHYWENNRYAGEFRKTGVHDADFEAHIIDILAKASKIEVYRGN
The experiment in a line: Sialyltransferase assay with cloned α2,3(O)ST. It counts as biochemical. The note with it: for Radioactivity incorporated (100% value) Cloned α2,3(O)ST: Table II.

Assay [2] concerns the target T1, Rat recombinant α2,3(O)ST. The experiment in a line: Sialyltransferase assay with cloned α2,3(O)ST. It counts as biochemical. As to conditions: Table II, relative to Galβ1,3GalNAcα-O-Bn.
The test system of the next assay is LNCaP α2,3(O)ST. The experiment in a line: Sialyltransferase assay with LNCaP cell extract. The class given is biochemical, human. As to conditions: Table II; for Sialyltransferase activity (%) LNCaP α2,3(O)ST: relative to Galβ1,3GalNAcα-O-Bn. The method in brief:
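LNCaP Triton X-100 extract (5 mg protein/ml; 0.1M Tris-maleate pH6.3) incubated with acceptor (typically 7.5 mM) and CMP-[9-3H]NeuAc (typically 0.2 μCi) in 0.1M Na cacodylate pH6.0, 2 h at 37 °C, in duplicate. Radioactive product separated on Dowex-1-formate, Sep-Pak C18 or Biogel P2 and counted by scintillation; blank without acceptor subtracted.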

The target in assay [3] is T2, Rat recombinant α2,6(N)ST (Rattus norvegicus, UniProt P13721).
T2 construct: purchased Calbiochem
T2 sequence (P13721 1-403): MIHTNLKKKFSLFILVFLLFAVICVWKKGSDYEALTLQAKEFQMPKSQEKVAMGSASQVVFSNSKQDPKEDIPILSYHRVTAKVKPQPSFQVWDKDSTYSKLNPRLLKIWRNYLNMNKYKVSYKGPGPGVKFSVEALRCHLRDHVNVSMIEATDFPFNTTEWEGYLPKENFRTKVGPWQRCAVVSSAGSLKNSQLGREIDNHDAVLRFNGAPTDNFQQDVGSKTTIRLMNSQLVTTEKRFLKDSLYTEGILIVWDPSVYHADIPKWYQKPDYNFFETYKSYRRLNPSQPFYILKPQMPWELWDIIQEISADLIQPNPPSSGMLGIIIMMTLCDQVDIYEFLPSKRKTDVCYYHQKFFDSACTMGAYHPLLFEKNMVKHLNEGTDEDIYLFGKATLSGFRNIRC
As to the kind of experiment: Sialyltransferase assay with cloned α2,6(N)ST. It counts as biochemical. As to conditions: Table I; acceptor 7.5 mM; sialylated product quantitated on Biogel P2 column.

For assay [4], the system named is α1,2-L-FT of colon tumor CC9338. The experiment in a line: α1,2-L-FT assay, colon tumor extract. It counts as biochemical, human. The note with it: 1 mg protein of the tissue extract. As to the method: (§1) Colon tumor tissue (CC9338) and breast tumor tissue (BC9400) were obtained during surgical procedures at Roswell Park Cancer Institute and stored frozen within 1 h at −70° C. The tissues were homogenized at 4° C. with 4 volumes of 0.1M Tris Maleate […] 0.1% NaN3 using kinematica. After adjusting the concentration of Triton X-100 to 2%, these homogenates were mixed in the cold room for 1 h using Speci-Mix (Thermolyne) and then centrifuged at 20,000 g for 1 h at 4° C. The clear fat-free supernatant was stored frozen at −20° C. until use. Aliquots of 10 μL from this extract were used in assays run in duplicates. Glycosyltransferase activity in cell lysate was determined by mixing the lysates with acceptor and radiolabeled donor (monosaccharide) under the reaction conditions detailed below, followed by separation of un-reacted donor from the radioactive product using anionic or hydrophobic chromatography. In all cases, the radioactive content of isolated products was determined by using 3a70 scintillation cocktail (Research Products International, Mount Prospect, Ill.) and a Beckman LS6500 scintillation counter. Controls for each assay contained the reaction mixture with everything except the acceptor. All assays were run in duplicate.
(§2) α1,2, α1,6-, α1,3- and α1,4-fucosyltransferase (FT) assay reactions were carried out for 2 h in a reaction mixture containing 50 mM Hepes buffer (pH 7.5), 5 mM MnCl2, 7 mM ATP, 3 mM NaN3, 3 mM synthetic acceptor or 40 μg of fetuin-based acceptor, 0.05 μCi GDP-[14C]Fuc (290 mCi/mmol) and 10 μl cell extract in a total volume of 20 μl [Chandrasekaran et al., 1996]. Sulfotransferase (Sulfo T) assay reactions took 2 h and required a mixture containing 100 mM Tris-maleate (pH 7.2), 5 mM Mg Acetate, 5 mM ATP, 10 mM NaF, 10 mM BAL, 7.5 mM acceptor, 0.5 μCi of [^35S]PAPS (specific activity 2.4 Ci/mmol) and 10 μl of cell extract in a total volume of 30 μl [Chandrasekaran et al., 2004].
(§3) Dowex-1-C1 or Sep-Pak C18 cartridges were used to isolate radiolabeled product from the reaction mixture. For GalT, GalNAc-T and FT assays, the incubation mixture was diluted with 1 ml water and passed through a 1 ml Dowex-1-C1 column [Chandrasekaran et al., 1996; Chandrasekaran et al., 2001]. The column was washed twice with 1 ml of water. The breakthrough and the water wash contained the [^14C]-galactosylated or [^14C]-fucosylated products formed with neutral acceptors. 3 ml of 0.1M NaCl was used to obtain [^14C]-fucosylated products from sialylated acceptors after water elution. For sialytransferase assays, the radioactive products from benzylglycosides were separated by hydrophobic chromatography on Sep-Pak C18 cartridge (Waters, Milford, Mass.), and elution of the product was done with 3 ml methanol [Palcic et al., 1988]. […]

The subject of assay [5] is α1,2-L-FT of breast tumor BC9400. As to the kind of experiment: α1,2-L-FT assay, breast tumor extract. As to conditions: 1 mg protein of the tissue extract. The class given is biochemical, human. As to the method:
as §1, §2, §3

The subject of assay [6] is β-GlcNAc:β1,4Gal-T of colon tumor CC9338. The experiment in a line: β-GlcNAc:β1,4Gal-T assay, colon tumor extract. It counts as biochemical, human. The note with it: other acceptors, 1 mg protein of the tissue extract. As to the method:
as §1
(§4) The acceptors used for measuring the glycosyltransferase and sulfotransferase activities are given in Table I. The following are the conditions for individual enzymatic assays. Reaction temperature in all cases was 37° C. α2,3- and α2,6 sialytransferase (ST) assay reactions proceeded for 2 h in a mixture containing 100 mM sodium cacodylate buffer (pH 6.0), 7.5 mM acceptor, CMP-[9-^3H]NeuAc (typically 0.2 μCi) and 10 μl cell extract in a total volume of 20 μl [Chandrasekaran et al., 1995]. βGlcNAc:β1,4Gal-T and αGalNAc:β1,3Gal-T assay mixtures in duplicate contained 0.1M Hepes-NaOH pH 7.0, 7 mM ATP, 20 mM Mn acetate, 1 mM UDP-Gal, UDP [^14C]Gal (0.05 μCi; 327mCi/mmol; Amersham), 0.5 mM acceptor (unless otherwise stated) and the enzyme in a total volume of 20 μL. It was incubated for 4 h [Chandrasekaran et al., 2001]. βGlcNAc:β1,4GalNAc-T assay mixtures in duplicate contained 0.1M Hepes-NaOH pH 7.0, 7 mM ATP, 20 mM Mn acetate. UDP [^3H] GalNAc (0.20 μCi; 7.8 Ci/mmol: New England Nuclear Corp.) 7.5 mM acceptor (unless otherwise stated) and the enzyme in a total volume of 20 μL and incubated for 4 h [Chandrasekaran et al., 2001].
(§5) Dowex-1-C1 or Sep-Pak C18 cartridges were used to isolate radiolabeled product from the reaction mixture. For GalT, GalNAc-T and FT assays, the incubation mixture was diluted with 1 ml water and passed through a 1 ml Dowex-1-C1 column [Chandrasekaran et al., 1996; Chandrasekaran et al., 2001]. The column was washed twice with 1 ml of water. The breakthrough and the water wash contained the [^14C]-galactosylated or [^14C]-fucosylated products formed with neutral acceptors. 3 ml of 0.1M NaCl was used to obtain [^14C]-fucosylated products from sialylated acceptors after water elution. For sialytransferase assays, the radioactive products from benzylglycosides were separated by hydrophobic chromatography on Sep-Pak C18 cartridge (Waters, Milford, Mass.), and elution of the product was done with 3 ml methanol [Palcic et al., 1988]. For sulfotransferase assays, elution of the [^35S]-sulfated compound from Dowex-1-C1 column was achieved by 3 ml of 0.2M NaCl [Chandrasekaran et al., 2004].

Assay [7] relates to β-GlcNAc:β1,4Gal-T of breast tumor BC9400. The experiment in a line: β-GlcNAc:β1,4Gal-T assay, breast tumor extract. The class given is biochemical, human. The note with it: other acceptors, 1 mg protein of the tissue extract. As to the method: as §1, §4, §5
For assay [8], the system named is β-GlcNAc:β1,4GalNAc-T of colon tumor CC9338. The experiment in a line: β-GlcNAc:β1,4GalNAc-T assay, colon tumor extract. The class given is biochemical, human. As to conditions: other acceptors, 1 mg protein of the tissue extract. As to the method:
as §1, §4, §5

In assay [9] the test system is β-GlcNAc:β1,4GalNAc-T of breast tumor BC9400. The experiment in a line: β-GlcNAc:β1,4GalNAc-T assay, breast tumor extract. It counts as biochemical, human. As to conditions: other acceptors, 1 mg protein of the tissue extract. As to the method:
as §1, §4, §5

For the compound `CC(=O)N[C@H]1[C@@H](OCc2ccccc2)O[C@H](CO)[C@H](O)[C@@H]1O[C@@H]1O[C@H](CO)[C@H](O)[C@H](O)[C@H]1O` [Galβ1,3GalNAcα-O-Bn], the “Radioactivity incorporated (100% value) Cloned α2,3(O)ST” value is reported as “(42550 CPM)” in assay [1] (acceptor 0.75 mM) and “(43600 CPM)” in [1] (acceptor 7.5 mM). For the same compound, the “Sialyltransferase activity (%) Cloned α2,3(O)ST” value in [2] (acceptor 0.75 mM) and in assay [2] (acceptor 7.5 mM) was 100.0^8% throughout. The “Radioactivity incorporated (100% value) LNCaP α2,3(O)ST” value with LNCaP α2,3(O)ST (acceptor 0.75 mM) is “(30490 CPM)”; in the assay with LNCaP α2,3(O)ST (acceptor 7.5 mM), “(30600 CPM)”. Further, the “Sialyltransferase activity (%) LNCaP α2,3(O)ST” value in the assay on LNCaP α2,3(O)ST (acceptor 0.75 mM) and with LNCaP α2,3(O)ST (acceptor 7.5 mM) was 100.0% each time.
With `CC(=O)N[C@H]1[C@H](OC[C@H]2O[C@H](OCc3ccccc3)[C@H](NC(C)=O)[C@@H](O[C@@H]3O[C@H](CO)[C@H](O)[C@H](OS(=O)(=O)O)[C@H]3O)[C@H]2O)O[C@H](CO)[C@@H](O[C@@H]2O[C@H](CO)[C@H](O)[C@H](O)[C@H]2O)[C@@H]1O` [Galβ1,4GlcNAcβ1,6(3-O-SulfoGalβ1,3)GalNAcα-O-Bn], in assay [1] (Table I, acceptor 7.5 mM, [14C] sialylated product quantitated on Biogel P2 column), the “Sialyltransferase activity (%) Cloned α2,3(O)ST” value is listed as 33.1^e,7%. Further, the “Sialyltransferase activity (%) Cloned α2,6(N)ST” value in assay [3] is 127.4^e,18%.
Take `OC[C@H]1O[C@@H](OCc2ccccc2)[C@H](O)[C@@H](O)[C@H]1O` [Galβ-O-Bn]: the “α1,2-L-FT activity: incorporation of radioactive sugar” value in assay [4] worked out at 20.6 CPM × 10^−3; in assay [5], 9.8 CPM × 10^−3.
Take `C=CCO[C@@H]1O[C@H](CO[C@@H]2O[C@H](CO)[C@@H](O)[C@H](O)[C@@H]2O[C@@H]2O[C@H](CO)[C@@H](O)[C@H](O)[C@H]2NC(C)=O)[C@@H](O)[C@H](O)[C@H]1O` [GlcNAcβ1,2Manβ1,6Glcβ-O—Al]: the “a) β-GlcNAc:β1,4Gal-T activity: incorporation of radioactive sugar” value was found to be 277.7 CPM × 10^−3 in assay [6] and 70.5 CPM × 10^−3 in assay [7]. Further, the figures for the “b) β-GlcNAc:β1,4GalNAc-T activity: incorporation of radioactive sugar” value in assay [8] and in [9] were 25.6 CPM × 10^−3 and 57.9 CPM × 10^−3, respectively.

The values above are taken from patent publication US20100221763A1, “Specific Acceptors for Transferases to Saccharides and Method for Obtaining and Using Same” (Health Research, Inc, priority 2005, published 2010).
